# Laboratory results: patent US20240287052A1, “NOVEL OXAZOLE DERIVATIVE AND PHARMACEUTICAL COMPOSITION FOR PREVENTING OR TREATING ALLERGIC DISEASES COMPRISING THE SAME” (AZCURIS CO., LTD., priority 2021, published 2024)
# Where two headings read alike, the source gives them in different places.
# Target: T1, IL33 and ST2 binding (Homo sapiens, UniProt O95760)
# T1 sequence (O95760 112-270 limits assumed): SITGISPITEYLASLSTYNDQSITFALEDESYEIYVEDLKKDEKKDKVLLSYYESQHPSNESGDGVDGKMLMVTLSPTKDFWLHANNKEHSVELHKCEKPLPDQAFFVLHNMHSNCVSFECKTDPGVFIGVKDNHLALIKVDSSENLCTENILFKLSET
# 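Note: plate ELISA with coated Flag-tagged human IL-33 and His-tagged human ST2, bound ST2 detected by anti-His HRP and TMB absorbance at 450 nm, 2 h compound incubation.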
# Method: 100 nM of Flag tagged IL-33 human recombinant protein was prepared in 1× coating buffer (Biolegend) and placed in a 96 well microplate (Coming) using a Multichannel pipette (Gilson) and coated for at least 12 hours at 4° C.
# After washing three times with PBST (1×PBS (Welgene), 1% Tween 20 (sigma)), it was reacted with 1% BSA (Bovogen) blocking buffer for 1 hour at room temperature.
# Samples containing 200 nM of His-tagged ST2 human recombinant protein and 60 μM or 200 μM Example synthetic compounds were prepared, added in equal volumes, and reacted for at least 2 hours at room temperature.
# After washing three times with PBST (1×PBS (Welgene), 1% Tween 20 (sigma)), anti-His HRP (BioLegend) antibody was diluted 5000:1 and reacted for at least 1 hour at room temperature.
# After washing three times with PBST (1×PBS (Welgene), 1% Tween 20 (sigma)), TMB substrate solution (Thermo) was added and reacted for more than 5 minutes. The reaction was stopped by adding 1 N HCl (Samchun) and the absorbance value was obtained at 450 nm after orbital shaking for 5 s with a Microplate reader (Tecan, Spark®).
# The results derived from the program linked to the microplate reader were analyzed using an Excel program. IL33-ST2 binding rate (binding %) was calculated by averaging the three values obtained in triplicate, subtracting the positive control value, and converting the negative control value to 100%. The inhibition % value of each compound was obtained by subtracting the IL33-ST2 binding % from 100%, and the error range of triplicate was also obtained and reflected in the inhibition graph of the compound.
Compound,inhibition (100 µM) [%],inhibition (30 µM) [%]
"CCOC(=O)c1coc(-c2ccc(SC)cc2)n1 [Compound 22, Ethyl 2-(4-(methylthio)phenyl)oxazole-4-carboxylate]",45,–
"CCOC(=O)c1nc(-c2ccccc2C(F)(F)F)oc1-c1ccccc1 [Compound 27, Ethyl 5-phenyl-2-(2-(trifluoromethyl)phenyl)oxazole-4-carboxylate]",84,34
"CCOC(=O)c1nc(-c2ccccc2C(F)(F)F)oc1-c1ccccc1[N+](=O)[O-] [Compound 28, Ethyl 5-(2-nitrophenyl)-2-(2-(trifluoromethyl)phenyl)oxazole-4-carboxylate]",53,30
"CCOC(=O)c1nc(-c2cccc(C(F)(F)F)c2)oc1-c1ccccc1 [Compound 29, Ethyl 5-phenyl-2-(3-(trifluoromethyl)phenyl)oxazole-4-carboxylate]",33,19
"CCOC(=O)c1nc(-c2cccc(C(F)(F)F)c2)oc1-c1ccccc1[N+](=O)[O-] [Compound 30, Ethyl 5-(2-nitrophenyl)-2-(3-(trifluoromethyl)phenyl)oxazole-4-carboxylate]",102,42
"CCOC(=O)c1nc(-c2ccc(C(F)(F)F)cc2)oc1-c1cccc(SC)c1 [Compound 40, Ethyl 5-(3-(methylthio)phenyl)-2-(4-(trifluoromethyl)phenyl)oxazole-4-carboxylate]",115,108
"CCOC(=O)c1nc(-c2cccc(OC(F)(F)F)c2)oc1-c1ccccc1 [Compound 56, Ethyl 5-phenyl-2-(3-(trifluoromethoxy)phenyl)oxazole-4-carboxylate]",93,40
"CCOC(=O)c1nc(-c2ccc(OC(F)(F)F)cc2)oc1-c1ccccc1 [Compound 58, Ethyl 5-phenyl-2-(4-(trifluoromethoxy)phenyl)oxazole-4-carboxylate]",105,44
"CCOC(=O)c1nc(-c2cccc(OC)c2)oc1-c1ccccc1 [Compound 60, Ethyl 2-(3-methoxyphenyl)-5-phenyloxazole-4-carboxylate]",68,27
"CCOC(=O)c1nc(-c2ccc(OC)cc2)oc1-c1ccccc1 [Compound 62, Ethyl 2-(4-methoxyphenyl)-5-phenyloxazole-4-carboxylate]",65,33
"CCOC(=O)c1nc(-c2ccc(OC)cc2)oc1-c1ccccc1[N+](=O)[O-] [Compound 63, Ethyl 2-(4-methoxyphenyl)-5-(2-nitrophenyl)oxazole-4-carboxylate]",57,26
"CCOC(=O)c1nc(-c2ccc(OC)cc2)oc1-c1ccc([N+](=O)[O-])cc1 [Compound 64, Ethyl 2-(4-methoxyphenyl)-5-(4-nitrophenyl)oxazole-4-carboxylate]",35,13
"CCOC(=O)c1nc(-c2cccc(F)c2)oc1-c1ccccc1 [Compound 65, Ethyl 2-(3-fluorophenyl)-5-phenyloxazole-4-carboxylate]",32,35
"CCOC(=O)c1nc(-c2cccc(F)c2)oc1-c1ccccc1[N+](=O)[O-] [Compound 66, Ethyl 2-(3-fluorophenyl)-5-(2-nitrophenyl)oxazole-4-carboxylate]",71,49
"CCOC(=O)c1nc(-c2ccc(F)cc2)oc1-c1ccccc1 [Compound 67, Ethyl 2-(4-fluorophenyl)-5-phenyloxazole-4-carboxylate]",15,9
"CCOC(=O)c1nc(-c2ccc(F)cc2)oc1-c1ccccc1[N+](=O)[O-] [Compound 68, Ethyl 2-(4-fluorophenyl)-5-(2-nitrophenyl)oxazole-4-carboxylate]",105,55
"CCOC(=O)c1nc(-c2ccc(F)cc2)oc1-c1ccc([N+](=O)[O-])cc1 [Compound 69, Ethyl 2-(4-fluorophenyl)-5-(4-nitrophenyl)oxazole-4-carboxylate]",48,32
"CCOC(=O)c1nc(-c2ccc(F)c(F)c2)oc1-c1ccccc1 [Compound 70, Ethyl 2-(3,4-difluorophenyl)-5-phenyloxazole-4-carboxylate]",41,18
"CCOC(=O)c1nc(-c2ccc(F)c(F)c2)oc1-c1ccccc1[N+](=O)[O-] [Compound 71, Ethyl 2-(3,4-difluorophenyl)-5-(2-nitrophenyl)oxazole-4-carboxylate]",49,29
"CCOC(=O)c1nc(-c2cc(F)cc(F)c2)oc1-c1ccccc1 [Compound 73, Ethyl 2-(3,5-difluorophenyl)-5-phenyloxazole-4-carboxylate]",22,12

Compound,inhibition (100 µM) [%],inhibition (30 µM) [%]
"CCOC(=O)c1nc(-c2ccc(Cl)cc2)oc1-c1ccccc1 [Compound 77, Ethyl 2-(4-chlorophenyl)-5-phenyloxazole-4-carboxylate]",110,95
"CCOC(=O)c1nc(-c2ccc(Cl)cc2)oc1-c1ccccc1[N+](=O)[O-] [Compound 78, Ethyl 2-(4-chlorophenyl)-5-(2-nitrophenyl)oxazole-4-carboxylate]",68,23
"CCOC(=O)c1nc(-c2ccc(C#N)cc2)oc1-c1ccccc1 [Compound 79, Ethyl 2-(4-cyanophenyl)-5-phenyloxazole-4-carboxylate]",107,41
"CCOC(=O)c1nc(-c2ccc(C#N)cc2)oc1-c1ccccc1[N+](=O)[O-] [Compound 80, Ethyl 2-(4-cyanophenyl)-5-(2-nitrophenyl)oxazole-4-carboxylate]",89,37
"CCOC(=O)c1nc(-c2ccc(-c3ccccc3)cc2)oc1-c1ccccc1 [Compound 81, Ethyl 2-([1,1′-biphenyl]-4-yl)-5-phenyloxazole-4-carboxylate]",109,59
"CCOC(=O)c1nc(-c2ccc3ccccc3c2)oc1-c1ccccc1 [Compound 83, Ethyl 2-(naphthalen-2-yl)-5-phenyloxazole-4-carboxylate]",42,22
"CCOC(=O)c1nc(-c2ccc3ccccc3c2)oc1-c1ccccc1[N+](=O)[O-] [Compound 84, Ethyl 2-(naphthalen-2-yl)-5-(2-nitrophenyl)oxazole-4-carboxylate]",54,20
"CCOC(=O)c1nc(-c2ccc(C(F)(F)F)cc2)oc1-c1cccc(N)c1 [Compound 100, Ethyl 5-(3-aminophenyl)-2-(4-(trifluoromethyl)phenyl)oxazole-4-carboxylate]",5,8
"CCOC(=O)c1nc(-c2ccc(C(F)(F)F)cc2)oc1-c1ccc(N)cc1 [Compound 101, Ethyl 5-(4-aminophenyl)-2-(4-(trifluoromethyl)phenyl)oxazole-4-carboxylate]",-24,1
"CCOC(=O)c1nc(-c2ccc(C(F)(F)F)cc2)oc1-c1cccc(NC(C)=O)c1 [Compound 106, Ethyl 5-(3-acetamidophenyl)-2-(4-(trifluoromethyl)phenyl)oxazole-4-carboxylate]",-2,-20
"CCOC(=O)c1nc(-c2ccc(C(F)(F)F)cc2)oc1-c1ccc(NC(C)=O)cc1 [Compound 107, Ethyl 5-(4-acetamidophenyl)-2-(4-(trifluoromethyl)phenyl)oxazole-4-carboxylate]",-9,-15
"CCOC(=O)c1nc(-c2ccc(C(F)(F)F)cc2)oc1-c1cccc(N(C(C)=O)C(C)=O)c1 [Compound 108, Ethyl 5-(3-(N-acetylacetamido)phenyl)-2-(4-(trifluoromethyl)phenyl)oxazole-4-carboxylate]",-21,-14
"CCOC(=O)c1nc(-c2ccc(C(F)(F)F)cc2)oc1-c1ccc(N(C(C)=O)C(C)=O)cc1 [Compound 109, Ethyl 5-(4-(N-acetylacetamido)phenyl)-2-(4-(trifluoromethyl)phenyl)oxazole-4-carboxylate]",-2,19
"CCOC(=O)c1nc(-c2ccc(C(C)(C)C)cc2)oc1-c1ccc(N(C(C)=O)C(C)=O)cc1 [Compound 110, Ethyl 5-(4-(N-acetylacetamido)phenyl)-2-(4-(tert-butyl)phenyl)oxazole-4-carboxylate]",26,19
"CCOC(=O)c1nc(-c2ccc(C(C)(C)C)cc2)oc1-c1ccc(NC(C)=O)cc1 [Compound 111, Ethyl 5-(4-acetamidophenyl)-2-(4-(tert-butyl)phenyl)oxazole-4-carboxylate]",12,10
"CN(C)CCNC(=O)c1coc(-c2ccc(C(F)(F)F)cc2)n1 [Compound 114, N-(2-(dimethylamino)ethyl)-2-(4-(trifluoromethyl)phenyl)oxazole-4-carboxamide]",9,10
"CN1CCN(CCNC(=O)c2coc(-c3ccc(C(F)(F)F)cc3)n2)CC1 [Compound 115, N-(2-(4-methylpiperazin-1-yl)ethyl)-2-(4-(trifluoromethyl)phenyl)oxazole-4-carboxamide]",-17,-22
"CN(C)CCN1CCN(C(=O)c2coc(-c3ccc(C(F)(F)F)cc3)n2)CC1 [Compound 116, (4-(2-(dimethylamino)ethyl)piperazin-1-yl)(2-(4-(trifluoromethyl)phenyl)oxazol-4-yl)methanone]",26,13
"CN(C)CCNC(=O)c1nc(-c2ccccc2C(F)(F)F)oc1-c1ccccc1 [Compound 117, N-(2-(Dimethylamino)ethyl)-5-phenyl-2-(2-(trifluoromethyl)phenyl)oxazole-4-carboxamide]",10,4
